The subject of assay [1] is purified Rhodococcus sp. FZ4 nitrile hydratase. The class given is biochemical. On the procedure: A solution comprising nitrile hydratase solution (0.695 μmol/min; 0.025 ml), potassium phosphate buffer (0.1 M; pH 7.0; 0.475 ml), distilled water (0.150 ml) and different potential inhibitors (0.100 ml) was incubated at 20° C. for 5 min. This was followed by the addition of 3-cyanopyridine (1.0 M; 0.250 ml). The concentration of the inhibitors in the reaction mixture was 1.0 mM. The reaction mixture was incubated at 20° C. for 10 min. The reaction was stopped by adding MeOH. The amount of nicotinamide produced was determined by means of HPLC according to Example 1.

Assay [2] has as its system Rhodococcus rhodochrous J1 nitrile hydratase. The experiment in a line: Substrate specificity of nitrile hydratase activity (comparison strain). The class given is cell-based.
The test system of assay [3] is purified Rhodococcus sp. FZ4 nitrile hydratase. Nature of the assay: Substrate specificity of purified nitrile hydratase. The class given is biochemical. On the procedure: A reaction mixture comprising nitrile hydratase solution (0.695 μmol/min; 0.025 ml), different substrates (0.500 ml) and potassium phosphate buffer (0.1 M; pH 7.0; 0.475 ml) was incubated at 20° C. for 5 to 10 min. The concentrations of the substrates used were in the range from 0.015 to 0.250 M. The reaction was stopped by adding MeOH. The amount of amide produced was determined by means of HPLC.

In assay [4] the test system is Rhodococcus sp. FZ4 nitrile hydratase. Nature of the assay: Substrate specificity of nitrile hydratase activity, resting cells. The class given is cell-based. On the procedure: (§1) Nitrile hydratase activity was determined by incubating a reaction mixture comprising 3-cyanopyridine (1.0 M; 1.0 ml), potassium phosphate buffer (0.1 M, pH 7.0; 0.5 ml) and cell suspension (0.5 ml) with stirring at 20° C. for 5 min. The reaction was stopped by adding HCI (5 M; 0.1 ml). After filtration (0.2 μm filter) of the reaction mixture, the amount of nicotinamide produced was determined by means of HPLC (Waters Spherisorb 5 μ ODS2 (4.6×150 mm); KH2P04/H3P04 (10 mM; pH 2.8)/acetonitrile=9:1 (v/v); 1 ml/min; 230 nm). The total activity is expressed as μmol of nicotinamide produced/ (min×ml) and the specific activity is expressed as μmol of nicotinamide produced/(min×ml×OD610 nm).
Rhodococcus sp. FZ4 nitrile hydratase activity with respect to different substrates was determined according to Example 1, except that the appropriate substrate was used instead of 3-cyanopyridine and that the HPLC conditions were modified according to the substrate used.

For assay [5] the test system is unchanged. The class given is cell-based. On the procedure: as §1
(§2) The preculture medium of Table 2 was inoculated with strain Rhodococcus sp. FZ4 (DSM 13597), followed by incubation with shaking at 28° C. for 1 to 2 days. The preculture was transferred into the culture medium of Table 5, which contained different inducers, and cultured with shaking at 28° C. for 3 days. Nitrile hydratase activity was determined according to Example 1. Rhodococcus sp.

The next assay deals with Rhodococcus sp. FZ4. The class given is cell-based. On the procedure:
as §2

[6] abbreviates: culture medium with inducer 0.2% (w/v), 28° C., 3 days, substrate 3-cyanopyridine.
Where [7] appears, read: culture medium with inducer 0.2% (w/v), 28° C., 3 days.

SMILES strings stand for the structures. Like-named read-outs stand apart in the source and are kept apart here.

For `O[C@H](CS)[C@H](O)CS` (racemic) [Dithiothreitol], the Relative activity in assay [1] came to 103%.
On the same count and under the same terms, for `c1cnc2c(c1)ccc1cccnc12` [1,10-Phenanthroline] the value was 106%; for `c1ccc(-c2ccccn2)nc1` [2,2′-Bipyridyl], 97.8%.
As to `N#Cc1ccccn1` [2-Cyanopyridine], the Relative activity in assay [2] stood at 45%; in assay [3] it was 36.7%; in assay [4] it was 39.3%.
As for `OCCS` [2-Mercaptoethanol], the Relative activity in assay [1] is 76.3%.
Take `CC=CCC#N` [3-Pentenenitrile]: in assay [5] (setting [6]), the Specific activity was 13.4 μmol/(min × ml × OD610 nm) and the Total activity is 62 µmol/min/mL. The Growth in the assay with Rhodococcus sp. FZ4 (setting [7]) is 4.62 OD610 nm.
As to `N#Cc1ccncc1` [4-Cyanopyridine], the Relative activity came to 70% in assay [2], 92.8% in assay [3] and 98.4% in assay [4].
Turning to `O=C(O)c1cc(SSc2ccc([N+](=O)[O-])c(C(=O)O)c2)ccc1[N+](=O)[O-]` [5,5′-Dithiobis(2-nitrobenzoic acid)], the Relative activity in assay [1] was 93.4%.
Same read-out and setting: for `Oc1cccc2cccnc12` [8-Hydroxyquinoline] the value was 97.8%.
Consider `C=CC(N)=O` [Acrylamide], for which, in assay [5], the Specific activity was 11.7 μmol/(min × ml × OD610 nm) and the Total activity was 60.5 µmol/min/mL. Also, the Growth in the assay on Rhodococcus sp. FZ4 is on record as 5.17 OD610 nm.
Consider `C=CC#N` [Acrylonitrile], for which the figures for the Relative activity in assay [2], in assay [3] and in assay [4] were 478%, 774% and 498%, respectively. Besides, the Specific activity in assay [5] (setting [6]) is 1.81 μmol/(min × ml × OD610 nm). The Growth in the assay on Rhodococcus sp. FZ4 (setting [7]) was 3.27 OD610 nm.
Consider `NC(=O)c1ccccc1` [Benzamide], for which, in assay [5] (setting [6]), the Specific activity was 2.12 μmol/(min × ml × OD610 nm) and the Total activity was 8.24 µmol/min/mL. The compound also had a Growth in the assay on Rhodococcus sp. FZ4 (setting [7]) of 3.88 OD610 nm.
Regarding `N#Cc1ccccc1` [Benzonitrile], the Relative activity in assay [2] amounted to 27%; in assay [3], 75.6%; in assay [4] it was 41.7%. For the same compound, in assay [5], the Specific activity was 7.17 μmol/(min × ml × OD610 nm). This compound also displayed a Total activity in assay [5] of 40.3 µmol/min/mL. For the same compound, the Growth with Rhodococcus sp. FZ4 came out at 5.62 OD610 nm.
For `CCCC(N)=O` [Butyramide], in assay [5] (setting [6]), the Specific activity is recorded as 73.2 μmol/(min × ml × OD610 nm) and the Total activity was 344 µmol/min/mL. This compound yielded a Growth with Rhodococcus sp. FZ4 (setting [7]) of 4.7 OD610 nm.
As to `CCCC#N` [Butyronitrile], the figures for the Relative activity in assay [2], in assay [3] and in assay [4] were 26%, 578% and 466%, respectively. Moreover, the Specific activity in assay [5] (setting [6]) is reported as 58.4 μmol/(min × ml × OD610 nm). Also, the Total activity in assay [5] (setting [6]) came out at 307 µmol/min/mL. For the same compound, in the assay with Rhodococcus sp. FZ4 (setting [7]), the Growth amounted to 5.26 OD610 nm.
As to `CCCCCC#N` [Caprononitrile], in assay [5] (setting [6]), the Specific activity is reported as 23.0 μmol/(min × ml × OD610 nm) and the Total activity came to 104 µmol/min/mL. For the same compound, the Growth in the assay on Rhodococcus sp. FZ4 (setting [7]) is on record as 4.54 OD610 nm.
Regarding `C/C=C/C(N)=O` [Crotonamide], in assay [5] (setting [6]), the Specific activity is reported as 59.9 μmol/(min × ml × OD610 nm) and the Total activity was 558 µmol/min/mL. The same compound had a Growth with Rhodococcus sp. FZ4 (setting [7]) of 9.32 OD610 nm.
The corresponding values for `N#CCC(N)=O` [Cyanoacetamide] are 6.50 μmol/(min × ml × OD610 nm), 30.9 µmol/min/mL and 4.75 OD610 nm.
On to `NCCS` [Cysteamine], for which the Relative activity in assay [1] turned out to be 99.1%.
Same read-out and setting: for `N[C@@H]1CONC1=O` [D-Cycloserine] the value was 86.3%; for `O=C(O)CN(CCN(CC(=O)O)CC(=O)O)CC(=O)O` [EDTA, Ethylenediaminetetraacetic acid], 100%; for `NO` [Hydroxylamine], 1.34%.
Still for that read-out and setting: for `O=C(O)CI` [Iodoacetate] the value was 96.7%.
For the compound `CC(C)C(N)=O` [Isobutyramide], in assay [5] (setting [6]), the Specific activity is 109 μmol/(min × ml × OD610 nm) and the Total activity worked out at 387 µmol/min/mL. Besides, the Growth in the assay with Rhodococcus sp. FZ4 (setting [7]) is given as 3.55 OD610 nm.
With `CC(C)C#N` [Isobutyronitrile], in assay [5] (setting [6]), the Specific activity was 52.1 μmol/(min × ml × OD610 nm) and the Total activity was found to be 273 µmol/min/mL. The compound also yielded a Growth with Rhodococcus sp. FZ4 (setting [7]) of 5.24 OD610 nm.
The corresponding values for `CC(C)CCC#N` [Isocaprononitrile] are 28.5 μmol/(min × ml × OD610 nm), 134 µmol/min/mL and 4.72 OD610 nm.
With `NC(=O)c1ccncc1` [Isonicotinamide], in assay [5] (setting [6]), the Specific activity is listed as 2.17 μmol/(min × ml × OD610 nm) and the Total activity was 10.9 µmol/min/mL. The compound also yielded a Growth in the assay on Rhodococcus sp. FZ4 (setting [7]) of 5.03 OD610 nm.
The corresponding values for `CC(C)CC#N` [Isovaleronitrile] are 23.2 μmol/(min × ml × OD610 nm), 74.7 µmol/min/mL and 3.22 OD610 nm.
Regarding `C=C(C)C(N)=O` [Methacrylamide], in assay [5] (setting [6]), the Specific activity is recorded as 125 μmol/(min × ml × OD610 nm) and the Total activity was found to be 569 µmol/min/mL. The Relative activity in assay [3] stood at 1.39%. Besides, the Growth in the assay on Rhodococcus sp. FZ4 (setting [7]) was found to be 4.55 OD610 nm.
As for `C=C(C)C#N` [Methacrylonitrile], the Relative activity in assay [2] amounted to 87%. Also, in assay [5] (setting [6]), the Specific activity is reported as 71.5 μmol/(min × ml × OD610 nm) and the Total activity is 330 µmol/min/mL. Further, the Relative activity in assay [4] was 3.64%. This compound had a Growth in the assay on Rhodococcus sp. FZ4 (setting [7]) of 4.61 OD610 nm.
On to `CCN1C(=O)C=CC1=O` [N-Ethylmaleinimide], for which, in assay [1], the Relative activity stood at 95.3%.
Still for that read-out and setting: to `NNc1ccccc1` [Phenylhydrazine] belongs 84.6%.
Take `O=S(=O)(F)Cc1ccccc1` [Phenylmethanesulfonyl fluoride]: the Relative activity in assay [1] is reported as 110%.
Turning to `CCC(N)=O` [Propionamide], in assay [5] (setting [6]), the Specific activity is recorded as 28.7 μmol/(min × ml × OD610 nm) and the Total activity stood at 149 µmol/min/mL. Also, the Growth in the assay with Rhodococcus sp. FZ4 (setting [7]) came to 5.17 OD610 nm.
Turning to `O=S(=O)(O)c1cc(O)c(O)c(S(=O)(=O)O)c1` [Tiron], in assay [1], the Relative activity came to 114%.
As for `NC(N)=O` [Urea], in assay [5] (setting [6]), the Specific activity was 0.918 μmol/(min × ml × OD610 nm) and the Total activity is 5.66 µmol/min/mL. For the same compound, in assay [1], the Relative activity is 106%. The same compound came in with a Growth with Rhodococcus sp. FZ4 (setting [7]) of 6.16 OD610 nm.
`CCCCC(N)=O` [Valeramide]: in assay [5] (setting [6]), the Specific activity is on record as 57.5 μmol/(min × ml × OD610 nm) and the Total activity was 322 µmol/min/mL. Besides, the Growth in the assay with Rhodococcus sp. FZ4 (setting [7]) was 5.61 OD610 nm.
As for `CCCCC#N` [Valeronitrile], in assay [5] (setting [6]), the Specific activity was 32.4 μmol/(min × ml × OD610 nm) and the Total activity was found to be 120 µmol/min/mL. Besides, the Growth in the assay with Rhodococcus sp. FZ4 (setting [7]) turned out to be 3.70 OD610 nm.
In the case of `N#Cc1cccc(Cl)c1` [m-Chlorobenzonitrile], the Relative activity is on record as 43% in assay [2], 66.5% in assay [3] and 39.3% in assay [4].
For `N#Cc1ccccc1Cl` [o-Chlorobenzonitrile], in that order: 2.8%, 0% and 0%.
The corresponding values for `N#Cc1ccc(Cl)cc1` [p-Chlorobenzonitrile] are 13%, 8.31% and 8.25%.
`O=C(O)c1cc[c]([Hg][Cl])cc1` [p-Chloromercuribenzoic acid]: in assay [1], the Relative activity worked out at 187%.
As to `O=C1CCCCCN1` [ε-Caprolactam], in assay [5] (setting [6]), the Specific activity is listed as 9.08 μmol/(min × ml × OD610 nm) and the Total activity came to 40.3 µmol/min/mL. Also, the Growth in the assay with Rhodococcus sp. FZ4 (setting [7]) is on record as 4.44 OD610 nm.

For the origin of these results see patent US7838271B2, “Microbiological method for producing amides” (priority 2001, dated 2010).
